Key:
papain = molecular target: T1, papain (Carica papaya, UniProt P00784); experiment: papain chromogenic substrate assay; type: biochemical
T1 construct: purchased Sigma Aldrich
T1 sequence (P00784 134-345): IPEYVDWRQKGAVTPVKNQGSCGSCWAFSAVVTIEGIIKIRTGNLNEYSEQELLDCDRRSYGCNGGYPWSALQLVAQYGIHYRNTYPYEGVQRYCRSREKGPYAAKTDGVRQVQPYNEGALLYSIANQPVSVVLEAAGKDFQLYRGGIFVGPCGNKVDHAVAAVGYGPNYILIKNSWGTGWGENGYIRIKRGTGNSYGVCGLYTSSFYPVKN
Text: (§1) FXIIIa and TG-2 belong to the same transglutaminase superfamily, and they share similar protein folds with a sequence similarity of 34%. Although we believe that sulfonated heparin mimetics are less likely to distribute to peripheral tissues, we evaluated inhibitor 16′s potential to inhibit TG-2 (we used recombinant TG-2). […] Likewise, we studied the inhibition of papain, a related cysteine protease, by molecule 16.
Direct inhibition of papain, a cysteine protease, by inhibitor 16 was also evaluated using a chromogenic substrate assay on a microplate reader as reported earlier.[36] Briefly, to each well of a 96-well microplate containing 91 μL of 50 mM Tris-HCl buffer, pH 7.4, containing 100 mM NaCl, 2.5 mM CaCl2, 100 mM DTT, 0.1% PEG8000, and 0.02% Tween80 was added 5 μL of inhibitor 16 (0–20 mM) or vehicle, and 3 μL of papain (130 U/mL) at 37 °C. After 5 min incubation, 1 μL of N-α-benzoyl-L-arginine 4-nitroanilide hydrochloride, the chromogenic substrate (17.7 mM) was rapidly added, and the residual enzyme activity was measured from the initial rate of increase in absorbance at 405 nm. Relative residual enzyme activity as a function of the inhibitor concentration was measured and inhibition parameters were calculated using logistic eq 1.

[1] = molecular target: T2, rTG-2 (recombinant human tissue transglutaminase-2) (Homo sapiens, UniProt P21980); experiment: bisubstrate, fluorescence-based trans-glutamination assay with recombinant TG-2; type: biochemical
T2 construct: purchased Tocris Bioscience
T2 sequence (P21980 1-687): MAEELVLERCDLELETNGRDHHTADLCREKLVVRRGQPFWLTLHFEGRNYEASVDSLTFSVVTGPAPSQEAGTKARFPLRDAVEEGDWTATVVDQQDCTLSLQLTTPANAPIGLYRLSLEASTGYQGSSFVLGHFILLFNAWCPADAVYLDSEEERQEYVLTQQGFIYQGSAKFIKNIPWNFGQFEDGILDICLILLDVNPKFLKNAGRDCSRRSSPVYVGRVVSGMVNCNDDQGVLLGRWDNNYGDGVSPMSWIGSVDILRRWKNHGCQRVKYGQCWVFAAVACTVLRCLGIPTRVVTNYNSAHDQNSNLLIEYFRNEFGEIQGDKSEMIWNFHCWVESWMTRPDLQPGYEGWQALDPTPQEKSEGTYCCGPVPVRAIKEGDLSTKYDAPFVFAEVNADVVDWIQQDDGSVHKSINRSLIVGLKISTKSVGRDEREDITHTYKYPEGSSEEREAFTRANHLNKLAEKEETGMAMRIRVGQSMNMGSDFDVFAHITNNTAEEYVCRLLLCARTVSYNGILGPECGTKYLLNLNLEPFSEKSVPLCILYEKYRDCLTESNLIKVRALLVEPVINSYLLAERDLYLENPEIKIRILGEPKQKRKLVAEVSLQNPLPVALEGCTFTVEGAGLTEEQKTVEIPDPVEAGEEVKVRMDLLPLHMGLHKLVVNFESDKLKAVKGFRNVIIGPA
Text: as §1
Human plasma proteins such as FXIIIa, thrombin, factor Xa, and factor XIa were procured from Haematologic Technologies. Recombinant human TG-2 was sourced from Tocris Bioscience. Their activities were validated according to the supplier’s instructions. Chromogenic substrates for thrombin and factor Xa were acquired from Biomedica Diagnostics, while the factor XIa chromogenic substrate (S-2366) was obtained from Diapharma. Dithiothreitol, N,N-dimethylcasein, and dansylcadaverine were purchased from Sigma Aldrich. Stock solutions of thrombin and factor XIa were prepared in 50 mM Tris-HCl buffer, pH 7.4, containing 150 mM sodium chloride, 0.1% PEG8000, and 0.02% Tween80. The stock solution of factor Xa was prepared in 20 mM Tris-HCl buffer, pH 7.4, containing 100 mM sodium chloride, 0.1% PEG8000, 2.5 mM CaCl2, and 0.02% Tween80. The stock solutions of FXIIIa and rTG-2 were prepared in 50 mM Tris-HCl, 1 mM CaCl2, 100 mM sodium chloride, 0.02% Tween80, 0.1% PEG8000, and 2 mg/mL dimethylcasein. Papain and its chromogenic substrate (N-α-benzoyl-L-arginyl-4-nitroanilide) were obtained from Sigma Aldrich. Papain was prepared in 50 mM Tris-HCl buffer, pH 7.4, containing 100 mM NaCl, 100 mM DTT, 2.5 mM CaCl2, 0.1% PEG8000, and 0.02% Tween80. Human plasma for coagulation assays was obtained from George King Bio-Medica for the clotting assays. Thromboplastin-D (PT reagent), APTT reagent containing ellagic acid, and 0.025 M solution of CaCl2 were obtained from Thermo Fisher Scientific. Results were reproduced at least three times.
For tissue TG-2, a recombinant protein (rTG-2) was used in a bisubstrate, fluorescence-based trans-glutamination assay involving dansylcadaverine and N,N-dimethylcasein as substrates and under similar conditions used for human FXIIIa above. The activity of rTG-2 was monitored following the addition of 5 μL of dansylcadaverine (2 mM) by measuring the initial rate of increase in fluorescence emission (λEx. = 360 nm and λEm. = 490 nm). Relative residual rTG-2 activity at each concentration of inhibitor 16 was calculated from the ratio of rTG-2 activity in the presence and absence of the inhibitor. Logistic eq 1 was used to fit the concentration dependence of residual rTG-2 activity to obtain the IC50 and ΔY% of inhibition.

## Nc1c(/N=N/c2ccc(S(=O)(=O)CCOS(=O)(=O)O)cc2)c(S(=O)(=O)O)cc2cc(S(=O)(=O)O)c(/N=N/c3ccc(S(=O)(=O)CCOS(=O)(=O)O)cc3)c(O)c12 [compound 16]
papain
  selectivity for FXIIIa over papain: > 200 fold
papain; 500 μM
  papain inhibition at the highest concentration tested: did not inhibit
[1]
  selectivity for FXIIIa over rTG-2: 9 fold
[1]; recombinant TG-2
  IC50: 18.1 ± 3.1 µM
  rTG-2 HS (Hill slope): 2.2 ± 0.9
  rTG-2 ΔY: 86 ± 7%
